From US20100137313A1 (ASTRAZENECA AB, priority 2008, published 2010)

target: S. pneumoniae Topoisomerase IV ATPase (ParE) (Streptococcus pneumoniae serotype 4, UniProt Q59961); test: S. pneumoniae Topoisomerase IV ATPase inhibition; assay type: biochemical; settings: values marked * are an average of two or more data points, read-out: % Inh (13 μM) of S. pneumoniae Topoisomerase IV ATPase
Summary of the method: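 Phosphate release by ParE ATPase from S. pneumoniae read colorimetrically (malachite green, 650 nm), enzyme 1.25 nM, ATP 160 μM, salmon sperm DNA present, buffer 20 mM Tris pH 8.0 with 8 mM MgCl2. IC50 over 10 compound concentrations, EDTA (20 μM) and DMSO controls defining inhibition range.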

Chain of S. pneumoniae Topoisomerase IV ATPase (ParE) (Q59961 whole entry): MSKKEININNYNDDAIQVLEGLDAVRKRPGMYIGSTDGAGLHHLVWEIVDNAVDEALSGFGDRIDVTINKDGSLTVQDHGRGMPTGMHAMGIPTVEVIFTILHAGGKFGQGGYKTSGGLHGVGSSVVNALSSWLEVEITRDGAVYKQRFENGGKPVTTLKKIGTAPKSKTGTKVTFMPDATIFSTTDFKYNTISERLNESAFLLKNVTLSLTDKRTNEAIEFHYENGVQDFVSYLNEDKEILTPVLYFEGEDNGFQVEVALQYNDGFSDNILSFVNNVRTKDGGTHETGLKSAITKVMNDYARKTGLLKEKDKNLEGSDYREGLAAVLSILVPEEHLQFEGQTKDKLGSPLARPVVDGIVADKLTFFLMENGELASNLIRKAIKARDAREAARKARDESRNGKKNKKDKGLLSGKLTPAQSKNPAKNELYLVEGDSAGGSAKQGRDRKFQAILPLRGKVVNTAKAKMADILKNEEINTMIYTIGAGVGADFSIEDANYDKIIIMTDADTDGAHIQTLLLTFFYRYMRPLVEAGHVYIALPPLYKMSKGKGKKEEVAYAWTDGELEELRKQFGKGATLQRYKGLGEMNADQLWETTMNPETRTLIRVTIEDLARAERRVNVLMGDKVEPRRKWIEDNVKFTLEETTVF

Row | Structure (SMILES) | inhibition at 13 µM [%]
1 | CCOC(=O)c1cncc(-c2cnc(Nc3ccc(F)c(Cl)c3)nc2NCCc2cccnc2)c1 [Example 102, 5-[2-(3-Chloro-4-fluoro-phenylamino)-4-(2-pyridin-3-yl-ethylamino)-pyrimidin-5-yl]-nicotinic acid ethyl ester] | 73.5
2 | CC1(C)[C@@H](C(=O)O)[C@@H]1c1cccc(-c2cnc(Nc3ccc(F)c(Cl)c3)nc2-n2ccc(C(F)(F)F)n2)c1 [Example 572, (1,3-trans)-3-(3-(2-(3-chloro-4-fluorophenylamino)-4-(3-(trifluoromethyl)-1H-pyrazol-1-yl)pyrimidin-5-yl)phenyl)-2,2-dimethylcyclopropanecarboxylic acid] | 100
3 | Nc1cc(C(=O)O)cc(-c2cnc(Nc3ccc(F)c(Cl)c3)nc2N2CCOCC2)c1 [Example 491, 3-amino-5-{2-[(3-chloro-4-fluorophenyl)amino]-4-(morpholin-4-yl)pyrimidin-5-yl}benzoic acid] | 87
4 | CCn1cc(-c2cnc(Nc3cc(C)cc(OC)c3)nc2-n2ccc(C(F)(F)F)n2)cc(C(=O)NS(C)(=O)=O)c1=O [Example 1175, 1-ethyl-5-{2-[(3-methoxy-5-methylphenyl)amino]-4-[3-(trifluoromethyl)-1H-pyrazol-1-yl]pyrimidin-5-yl}-N-(methylsulfonyl)-2-oxo-1,2-dihydropyridine-3-carboxamide] | 99
5 | COc1nc(OC)c(-c2cnc(Nc3ccc(F)c(Cl)c3)nc2-n2nc(C(F)(F)F)cc2C)cc1C(=O)O [Example 1131, 5-(2-(3-chloro-4-fluorophenylamino)-4-(5-methyl-3-(trifluoromethyl)-1H-pyrazol-1-yl)pyrimidin-5-yl)-2,6-dimethoxynicotinic acid] | 100
6 | COc1ncc(-c2cnc(Nc3ccc(F)c(Cl)c3)nc2NCC2CCN(C(=O)C3CC3)CC2)cn1 [Example 466, (4-((2-(3-chloro-4-fluorophenylamino)-2′-methoxy-5,5′-bipyrimidin-4-ylamino)methyl)piperidin-1-yl)(cyclopropyl)methanone] | 78
7 | COc1ccc(CNc2nc(Nc3ccc(F)c(Cl)c3)ncc2-c2cnc(OC)nc2)cn1 [Example 465, N2-(3-chloro-4-fluorophenyl)-2′-methoxy-N4-((6-methoxypyridin-3-yl)methyl)-5,5′-bipyrimidine-2,4-diamine] | 59
8 | COc1cc(Nc2ncc(-c3cnc(OCCCS(C)(=O)=O)c(C(=O)O)c3)c(-n3ccc(C(F)(F)F)n3)n2)cc(OC)c1 [Example 968, 5-(2-(3,5-dimethoxyphenylamino)-4-(3-(trifluoromethyl)-1H-pyrazol-1-yl)pyrimidin-5-yl)-2-(3-(mehtylsulfonyl)propoxy)nicotinic acid] | 94
9 | N#Cc1cc(Nc2ncc(-c3cncc(C(=O)O)c3)c(N3CCOCC3)n2)ccc1F [Example 440] | 85
10 | NC(=O)c1cncc(-c2cnc(Nc3ccc(F)c(Cl)c3)nc2-n2nc(C(F)F)cc2C(F)F)c1 [Example 539, 5-{4-[3,5-bis(difluoromnethyl)-1H-pyrazol-1-yl]-2-[(3-chloro-4-fluorophenyl)amino]pyrimidin-5-yl}pyridine-3-carboxamide] | 100
11 | Cc1cc(C(F)(F)F)nn1-c1nc(Nc2ccc(F)c(Cl)c2)ncc1-c1cncc(C(=O)NCCNS(C)(=O)=O)c1 [Example 925, 5-(2-(3-chloro-4-fluorophenylamino)-4-(5-methyl-3-(trifluoromethyl)-1H-pyrazol-1-yl)pyrimidin-5-yl)-N-(2-(methylsulfonamido)ethyl)nictinamide] | 88
12 | CC(C)N1CCN(CCn2cc(-c3cnc(Nc4ccc(F)c(Cl)c4)nc3-n3ccc(C(F)(F)F)n3)cc(C(=O)O)c2=O)CC1 [Example 1089, 5-(2-(3-chloro-4-fluorophenylamino)-4-(3-(trifluoromethyl)-1H-pyrazol-1-yl)pyrimidin-5-yl)-1-(2-(4-isopropylpiperazin-1-yl)ethyl)-2-oxo-1,2-dihydropyridine-3-carboxylic acid] | 100
13 | O=C(O)c1cncc(-c2cnc(Nc3ccc(F)c(Cl)c3)nc2NCc2cccnc2)c1 [Example 223, 5-{2-(3-Chloro-4-fluoro-phenylamino)-4-[(pyridin-3-ylmethyl)-amino]-pyrimidin-5-yl}-nicotinic acid] | 77.4
14 | COc1ncc(-c2cnc(Nc3ccc(F)c(Cl)c3)nc2NCCc2ccncc2)cn1 [Example 461, N^2-(3-chloro-4-fluorophenyl)-2′-methoxy-N^4-[2-(pyridin-4-yl)ethyl]-5,5′-bipyrimidine-2,4-diamine] | 100
15 | COc1cc(Nc2ncc(-c3cnc(OC)c(C(=O)NS(=O)(=O)c4cn(C)cn4)c3)c(-n3nc(C(F)(F)F)cc3C)n2)cc(OC)c1 [Example 839, 5-{2-[(3,5-dimethoxyphenyl)amino]-4-[5-methyl-3-(trifluoromethyl)-1H-pyrazol-1-yl]pyrimidin-5-yl}-2-methoxy-N-[(1-methyl-1H-imidazol-4-yl)sulfonyl]pyridine-3-carboxamide] | 100
16 | Cc1cc(C)cc(Nc2ncc(-c3cccc(/C=C/C(=O)O)c3)c(-n3nc(C(F)(F)F)cc3C)n2)c1 [Example 618, (2E)-3-(3-{2-[(3,5-dimethylphenyl)amino]-4-[5-methyl-3-(trifluoromethyl)-1H-pyrazol-1-yl]pyrimidin-5-yl}phenyl)prop-2-enoic acid] | 98
17 | CCN1CCC(CNc2nc(Nc3ccc(F)c(Cl)c3)ncc2-c2cnc(OC)nc2)CC1 [Example 468, N2-(3-chloro-4-fluorophenyl)-N4-((1-ethylpiperidin-4-yl)methyl)-2′-methoxy-5,5′-bipyrimidine-2,4-diamine] | 80
18 | O=C(O)c1cncc(-c2cnc(Nc3ccc(F)c(Cl)c3)nc2N2CCCC2)c1 [Example 280, 5-(2-(3-chloro-4-fluorophenylamino)-4-(pyrrolidin-1-yl)pyrimidin-5-yl)nicotinic acid] | 83.4
19 | CN(C)CCCNc1nc(Nc2ccc(F)c(Cl)c2)ncc1-c1cccnc1 [Example 23, N^2-(3-chloro-4-fluorophenyl)-N^4-[3-(dimethylamino)propyl]-5-pyridin-3-ylpyrimidin-2,4-diamine] | 95.8
20 | CN(C)CCCNc1nc(Nc2ccc(F)c(Cl)c2)ncc1-c1cncc(C(=O)O)c1 [Example 214, 5-(2-(3-chloro-4-fluorophenylamino)-4-(3-(dimethylamino)propylamino)pyrimidin-5-yl)nicotinic acid] | 101
21 | CN(C)CCCNc1nc(Nc2ccc(F)c(Cl)c2)ncc1-c1cnc(N)nc1 [Example 19, N^2-(3-chloro-4-fluorophenyl)-N^4-[3-(dimethylamino)propyl]-5,5′-bipyrimidin-2,2′,4-triamine] | 95.8
22 | CN(C)CCCNc1nc(Nc2ccc(F)c(Cl)c2)ncc1-c1cccc(C(=O)O)c1 [Example 31, 3-(2-[(3-chloro-4-fluorophenyl)amino]-4-{[3-(dimethylamino)propyl]-amino}pyrimidin-5-yl)benzoic acid] | 86
23 | Cc1cc(C(F)(F)F)nn1-c1nc(Nc2cc(F)cc(F)c2)ncc1-c1cccc(/C=C/C(=O)O)c1 [Example 620, (2E)-3-(3-{2-[(3,5-difluorophenyl)amino]-4-[5-methyl-3-(trifluoromethyl)-1H-pyrazol-1-yl]pyrimidin-5-yl}phenyl)prop-2-enoic acid] | 96
24 | Fc1ccc(Nc2ncc(-c3cncnc3)c(NCCN3CCOCC3)n2)cc1Cl [Example 43, N^2-(3-chloro-4-fluorophenyl)-N^4-(2-morpholin-4-ylethyl)-5-pyrimidin-5-ylpyrimidine-2,4-diamine] | 74.3
25 | O=C(O)c1cncc(-c2cnc(Nc3ccc(F)c(Cl)c3)nc2N[C@H]2CC[C@H](O)CC2)c1 [Example 255, 5-[2-[(3-chloro-4-fluorophenyl)amino]-4-[(4-hydroxycyclohexyl)-amino]pyrimidin-5-yl]pyridine-3-carboxylic acid] | 72.8
26 | CCNC(=O)c1cncc(-c2cnc(Nc3ccc(F)c(Cl)c3)nc2-n2ccc(C(F)(F)F)n2)c1 [Example 1125, 5-[2-[(3-chloro-4-fluorophenyl)amino]-4-[3-(trifluoromethyl)pyrazol-1-yl]pyrimidin-5-yl]-N-ethylpyridine-3-carboxamide] | 51
27 | Cc1cc(C(F)F)nn1-c1nc(Nc2ccc(F)c(Cl)c2)ncc1-c1cncc(C(=O)O)c1 [Example 530, 5-{2-[(3-chloro-4-fluorophenyl)amino]-4-[3-(difluoromethyl)-5-methyl-1H-pyrazol-1-yl]pyrimidin-5-yl}pyridine-3-carboxylic acid] | 100
28 | CCOC(=O)c1cncc(-c2cnc(Nc3ccc(F)c(Cl)c3)nc2NCCCc2nc3ccccc3[nH]2)c1 [Example 140, ethyl 5-(4-(3-(1H-benzo[d]imidazol-2-yl)propylamino)-2-(3-chloro-4-fluorophenylamino)pyrimidin-5-yl)nicotinate] | 83.5
29 | O=C(O)/C=C/c1cccc(-c2cnc(Nc3cccc(F)c3)nc2-n2ccc(C(F)(F)F)n2)c1 [Example 621, (2E)-3-(3-{2-[(3-fluorophenyl)amino]-4-[3-(trifluoromethyl)-1H-pyrazol-1-yl]pyrimidin-5-yl}phenyl)prop-2-enoic acid] | 100
30 | O=C(O)Cn1nccc1-c1cnc(Nc2ccc(F)c(Cl)c2)nc1-n1ccc(C(F)(F)F)n1 [Example 1137, 2-(5-(2-(3-chloro-4-fluorophenylamino)-4-(3-(trifluoromethyl)-1H-pyrazol-1-yl)pyrimidin-5-yl)-1H-pyrazol-1-yl)acetic acid] | 100
